Data: ChEMBL document CHEMBL5500346, “Targeting EGFR degradation by autophagosome degraders” (Eur J Med Chem, 2024)
Active and inactive are the calls of the source. Unless noted, the rule behind the calls is not given here.

Assays:
NCI-H1975 = assay: Antiproliferative activity against human NCI-H1975 cells incubated for 72 hrs by CCK8 assay; type: functional, cell-based; conditions: NCI-H1975, 72 h
L02 = assay: Antiproliferative activity against human HL7702 cells incubated for 72 hrs by CCK8 assay; type: toxicity, cell-based; conditions: l02, 72 h
[1] = biological target: T1, Microtubule-associated protein 1 light chain 3 beta/Epidermal growth factor receptor (Homo sapiens, UniProt P00533+Q9GZQ8); assay: ATTEC activity at LC3B/EGFR in human HCC827 cells assessed as protein degradation by immunoblot analysis; type: cell-based
[2] = biological target: T1, Microtubule-associated protein 1 light chain 3 beta/Epidermal growth factor receptor; assay: ATTEC activity at LC3B/EGFR in human NCI-H3255 cells assessed as protein degradation; type: cell-based
[3] = biological target: T1, Microtubule-associated protein 1 light chain 3 beta/Epidermal growth factor receptor; assay: ATTEC activity at LC3B/EGFR in human HCC827 cells assessed as protein degradation; type: cell-based
[4] = biological target: T1, Microtubule-associated protein 1 light chain 3 beta/Epidermal growth factor receptor; assay: ATTEC activity at LC3B/EGFR in Gefitinib-resistant human PC-9 cells assessed as protein degradation; type: cell-based
[5] = biological target: T1, Microtubule-associated protein 1 light chain 3 beta/Epidermal growth factor receptor; assay: ATTEC activity at LC3B/EGFR in human HCC827 cells assessed as protein degradation at 1 uM measured after 12 hrs by Western blot analysis relative to control; type: cell-based
[6] = biological target: T1, Microtubule-associated protein 1 light chain 3 beta/Epidermal growth factor receptor; assay: ATTEC activity at LC3B/EGFR in MLN4924-treated human HCC827 cells assessed as protein degradation at 1 uM incubated for 12 hrs by Western blot analysis; type: cell-based
[7] = biological target: T1, Microtubule-associated protein 1 light chain 3 beta/Epidermal growth factor receptor; assay: Binding affinity to biotinylated LC3B/EGFR in human HCC827 cells assessed as dissociation constant BLI assay; type: cell-based
[8] = biological target: T1, Microtubule-associated protein 1 light chain 3 beta/Epidermal growth factor receptor; assay: ATTEC activity at LC3B/EGFR in human HCC827 cells assessed as increase in density of lysosomes incubated for 4 hrs by LysoTracker Red staining based analysis; type: cell-based
PC-9 = assay: Inhibition of colony formation in human PC-9 cells incubated for 2 weeks by crystal violet staining based analysis; type: functional, cell-based; conditions: dose 0.1-10 µM
NCI-H3255 = assay: Inhibition of colony formation in human NCI-H3255 cells incubated for 2 weeks by crystal violet staining based analysis; type: functional, cell-based; conditions: dose 0.1-10 µM
[9] = Half life in Sprague-Dawley rat at 20 mg/kg, ip; type: ADME, organism-based; conditions: in vivo
[10] = Toxicity in NOD-SCID mouse bearing human PC-9 cells assessed as body weight loss at 5 to 20 mg/kg, ip administered every other day for 3 weeks; type: organism-based; conditions: in vivo, 504 h, dose 5-20 mg/kg
[11] = Toxicity in C57BL/6 mouse assessed as body weight loss upto 200 mg/kg, ip measured after 24 hrs; type: organism-based; conditions: in vivo
[12] = Toxicity in C57BL/6 mouse assessed as tremor upto 200 mg/kg, ip measured after 24 hrs; type: organism-based; conditions: in vivo
[13] = Toxicity in C57BL/6 mouse assessed as histological change in heart upto 200 mg/kg, ip measured after 24 hrs by H and E staining based analysis; type: organism-based; conditions: in vivo
[14] = Toxicity in C57BL/6 mouse assessed as serum ALT level at 100 mg/kg, ip measured after 24 hrs (reference value: 42.554 U/L); type: organism-based; conditions: in vivo
[15] = Toxicity in C57BL/6 mouse assessed as serum TBA level at 100 mg/kg, ip measured after 24 hrs (reference value: 2.674 umol/L); type: organism-based; conditions: in vivo
[16] = Toxicity in C57BL/6 mouse assessed as serum urea level at 100 mg/kg, ip measured after 24 hrs (reference value: 18.934 mmol/L); type: organism-based; conditions: in vivo
[17] = Toxicity in C57BL/6 mouse assessed as serum creatinine level at 100 mg/kg, ip measured after 24 hrs (reference value: 32.258 umol/L); type: organism-based; conditions: in vivo
[18] = Toxicity in C57BL/6 mouse assessed as serum uric acid level at 100 mg/kg, ip measured after 24 hrs (reference value: 78.784 umol/L); type: organism-based; conditions: in vivo
[19] = Toxicity in C57BL/6 mouse assessed as serum AST level at 200 mg/kg, ip measured after 24 hrs (reference value: 234.682 U/L); type: organism-based; conditions: in vivo
[20] = Toxicity in C57BL/6 mouse assessed as serum GGT level at 200 mg/kg, ip measured after 24 hrs (reference value: 1.62 U/L); type: organism-based; conditions: in vivo
[21] = Toxicity in C57BL/6 mouse assessed as serum ALB level at 200 mg/kg, ip measured after 24 hrs (reference value: 40.01 g/L); type: organism-based; conditions: in vivo
[22] = Toxicity in C57BL/6 mouse assessed as serum urea level at 200 mg/kg, ip measured after 24 hrs (reference value: 18.934 mmol/L); type: organism-based; conditions: in vivo
[23] = Toxicity in C57BL/6 mouse assessed as serum creatinine level at 200 mg/kg, ip measured after 24 hrs (reference value: 32.258 umol/L); type: organism-based; conditions: in vivo

- IC50 (NCI-H1975): > 10000 nM
- DC50 [1]: 980 nM
- Activity [2]: Active
- Activity [3]: Active
- Activity [4]: inactive
- Activity [5]: 68%
- Activity [6]: Active
- Kd [7]: 710 nM
- Activity [8]: Active
- half-life [9]: 10.5 h
SMILES: COc1cc2ncnc(Nc3ccc(F)c(Cl)c3)c2cc1OCCOCCOCCOCCNC(=O)COc1c(Br)cc(/C=C2\C(=O)Nc3ccc(I)cc32)cc1Br
- Activity (L02): Non-Toxic
- inhibition (PC-9): Dose-Dependent Effect
- inhibition (NCI-H3255): Dose-Dependent Effect
- Activity [10]: Non-Toxic
- Activity [11]: Non-Toxic
- Activity [12]: Non-Toxic
- Activity [13]: Non-Toxic
- Activity [14]: 65.504 U/L
- Activity [15]: 2.53 µmol/L
- Activity [16]: 19.63 mmol/L
- Activity [17]: 27.8 µmol/L
- Activity [18]: 44.454 µmol/L
- Activity [19]: 159.506 U/L
- Activity [20]: 1.712 U/L
- Activity [21]: 40.048 g/L
- Activity [22]: 19.029 mmol/L
- Activity [23]: 30.848 µmol/L
